The IC50 is the concentration that inhibits the measured activity by half.

Assay [1] addresses T1, baculovirus-expressed ALK (Homo sapiens, UniProt Q9UM73).
T1 construct: host or cells: baculovirus expression system
Put plainly: ALK Kinase Assay (ELISA-type, time-resolved fluorescence). As to conditions: 1 μM ATP (Km level), 30 ng/ml ALK, 37° C., 15 minutes; read-out: ALK Activity (ALK kinase inhibition, IC50 class). Type of assay: biochemical. The gist of the method: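 Plates coated with phospholipase C-γ substrate (10 μg/mL in TBS); reaction started with 30 ng/ml ALK and run 15 min at 37° C. Phosphorylated substrate detected with Eu-N1-labeled PT66 antibody. IC50 from sigmoidal variable-slope fit of percent inhibition vs log concentration.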
In general terms: An ELISA detects its analyte on a solid surface through an enzyme-linked reagent.

Assay [2] has as its target T2, c-Met (cytoplasmic domain) (Homo sapiens, UniProt P08581).
T2 construct: 10 ng/mL c-Met (cytoplasmic domain, Invitrogen Corporation #PV3143); purchased Invitrogen Corporation PV3143
As to the kind of experiment: c-Met Kinase Assay (same methods as for ALK, with modifications). As to conditions: 1 μM ATP (Km level), 10 ng/mL c-Met; read-out: cMet Activity (c-Met kinase inhibition, IC50 class). It is filed as biochemical. The gist of the method: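 Plates were coated with phospholipase C-γ substrate (10 μg/mL) in TBS, and the reaction was started with 10 ng/mL c-Met cytoplasmic domain and run 15 min at 37 °C. Phosphoproduct was detected with Eu-N1-labelled PT66 antibody. IC50 came from a variable-slope sigmoidal fit of percent inhibition vs log concentration.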

T2 sequence (P08581 956-1390 limits assumed): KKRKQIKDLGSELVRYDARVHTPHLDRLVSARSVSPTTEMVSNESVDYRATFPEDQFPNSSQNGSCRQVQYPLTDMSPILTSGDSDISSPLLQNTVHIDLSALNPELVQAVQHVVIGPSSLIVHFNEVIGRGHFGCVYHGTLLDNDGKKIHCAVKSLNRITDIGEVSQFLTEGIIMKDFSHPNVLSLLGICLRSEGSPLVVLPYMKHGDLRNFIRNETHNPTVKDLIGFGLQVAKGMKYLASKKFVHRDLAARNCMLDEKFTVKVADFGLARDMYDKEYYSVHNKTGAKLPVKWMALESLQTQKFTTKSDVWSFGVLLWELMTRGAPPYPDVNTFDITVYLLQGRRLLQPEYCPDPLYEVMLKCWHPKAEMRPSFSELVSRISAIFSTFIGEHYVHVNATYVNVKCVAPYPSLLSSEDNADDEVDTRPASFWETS
T1 sequence (Q9UM73 19-1620): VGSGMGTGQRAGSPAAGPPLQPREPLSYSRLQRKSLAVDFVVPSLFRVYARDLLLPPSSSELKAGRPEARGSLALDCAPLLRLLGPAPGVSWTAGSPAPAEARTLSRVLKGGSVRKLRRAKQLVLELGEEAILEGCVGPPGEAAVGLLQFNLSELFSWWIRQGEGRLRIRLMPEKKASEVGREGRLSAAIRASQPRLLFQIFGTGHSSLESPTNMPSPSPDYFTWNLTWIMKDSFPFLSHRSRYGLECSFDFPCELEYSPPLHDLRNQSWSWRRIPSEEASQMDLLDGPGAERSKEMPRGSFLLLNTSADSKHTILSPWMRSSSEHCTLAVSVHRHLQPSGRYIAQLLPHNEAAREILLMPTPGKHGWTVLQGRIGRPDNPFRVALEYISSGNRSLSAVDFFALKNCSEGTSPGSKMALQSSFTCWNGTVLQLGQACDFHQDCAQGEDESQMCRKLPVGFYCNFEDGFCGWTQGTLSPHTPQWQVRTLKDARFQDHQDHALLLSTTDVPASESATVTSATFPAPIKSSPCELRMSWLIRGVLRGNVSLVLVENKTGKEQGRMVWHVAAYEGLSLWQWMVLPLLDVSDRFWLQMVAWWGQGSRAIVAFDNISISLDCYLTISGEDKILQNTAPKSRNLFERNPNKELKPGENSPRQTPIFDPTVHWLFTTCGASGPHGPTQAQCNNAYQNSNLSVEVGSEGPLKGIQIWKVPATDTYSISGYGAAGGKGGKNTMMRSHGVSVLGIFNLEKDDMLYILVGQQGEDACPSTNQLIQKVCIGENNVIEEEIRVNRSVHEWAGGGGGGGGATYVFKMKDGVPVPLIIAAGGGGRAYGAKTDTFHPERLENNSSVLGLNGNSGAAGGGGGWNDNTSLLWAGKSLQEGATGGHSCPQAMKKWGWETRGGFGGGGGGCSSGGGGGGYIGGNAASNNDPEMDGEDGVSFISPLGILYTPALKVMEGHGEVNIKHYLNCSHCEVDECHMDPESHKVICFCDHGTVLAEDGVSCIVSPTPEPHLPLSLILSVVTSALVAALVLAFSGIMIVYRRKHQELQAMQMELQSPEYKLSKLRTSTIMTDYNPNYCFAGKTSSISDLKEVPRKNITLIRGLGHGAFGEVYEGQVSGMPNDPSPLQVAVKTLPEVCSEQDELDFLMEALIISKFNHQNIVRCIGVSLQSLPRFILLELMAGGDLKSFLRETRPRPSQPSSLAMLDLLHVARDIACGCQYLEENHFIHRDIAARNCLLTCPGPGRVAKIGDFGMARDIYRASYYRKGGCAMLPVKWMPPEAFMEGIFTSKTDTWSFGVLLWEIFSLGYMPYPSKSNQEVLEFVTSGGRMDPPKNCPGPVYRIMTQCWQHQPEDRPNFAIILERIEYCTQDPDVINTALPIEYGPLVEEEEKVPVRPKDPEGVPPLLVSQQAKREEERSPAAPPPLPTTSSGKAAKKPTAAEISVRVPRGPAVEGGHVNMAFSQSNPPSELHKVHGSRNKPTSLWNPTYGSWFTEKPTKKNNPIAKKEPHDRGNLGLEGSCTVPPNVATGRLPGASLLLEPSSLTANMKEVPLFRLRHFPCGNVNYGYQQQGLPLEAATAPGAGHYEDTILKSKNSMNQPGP

Take `CNC(=O)c1cccc(F)c1Nc1nc(Nc2ccc3c(c2)NC(=O)CCO3)ncc1Cl` [Example 1221, 2-[5-Chloro-2-(8-oxo-6,7,8,9-tetrahydro-5-oxa-9-aza-benzocyclohepten-2-ylamino)-pyrimidin-4-ylamino]-3-fluoro-N-methyl-benzamide]: the IC50 was 100 to 1000 nM in assay [1] and less than 100 nM in assay [2].
In the same order, the values of `CNC(=O)c1cccc(F)c1Nc1nc(Nc2ccc3c(c2)C(=O)NCCO3)ncc1Cl` [Example 1222, 2-[5-Chloro-2-(5-oxo-2,3,4,5-tetrahydro-1,4-benzoxazepin-7-ylamino)-pyrimidin-4-ylamino]-3-fluoro-N-methyl-benzamide] are 100 to 1000 nM and 100 to 1000 nM.
For `CCN1C(=O)CCCc2ccc(Nc3ncc(Cl)c(Nc4cccc(CCC#N)c4)n3)cc21` [Example 1223, 3-{3-[5-Chloro-2-(1-ethyl-2-oxo-2,3,4,5-tetrahydro-1H-1-benzazepin-8-ylamino)-pyrimidin-4-ylamino]-phenyl}-propionitrile] the same measures were 100 to 1000 nM and 100 to 1000 nM.
Take `CNC(=O)c1cccc(F)c1Nc1nc(Nc2ccc3c(c2)CNC(=O)CCN3C(C)=O)ncc1Cl` [Example 1224, 2-[2-(1-Acetyl-4-oxo-1,2,3,4,5,6-hexahydro-benzo[b][1,5]diazocin-8-ylamino)-5-chloro-pyrimidin-4-ylamino]-3-fluoro-N-methyl-benzamide]: the IC50 in assay [1] and in assay [2] was less than 100 nM each time.
Take `CCN1C(=O)CCCc2ccc(Nc3ncc(Cl)c(Nc4ccc(CC#N)cc4)n3)cc21` [Example 1225, {4-[5-Chloro-2-(1-ethyl-2-oxo-2,3,4,5-tetrahydro-1H-1-benzazepin-8-ylamino)-pyrimidin-4-ylamino]-phenyl}-acetonitrile]: the values for the IC50 in assay [1] and in assay [2] were 100 to 1000 nM and 1000 to 10000 nM, respectively.
Turning to `CCN1C(=O)CCCc2ccc(Nc3ncc(Cl)c(Nc4ccc(OCC#N)cc4)n3)cc21` [Example 1226, {4-[5-Chloro-2-(1-ethyl-2-oxo-2,3,4,5-tetrahydro-1H-1-benzazepin-8-ylamino)-pyrimidin-4-ylamino]-phenoxy}-acetonitrile], the IC50 in assay [1] was in the range of 100 to 1000 nM; in assay [2], 1000 to 10000 nM.
For `CNC(=O)c1cccc(O)c1Nc1nc(Nc2ccc3c(c2)CCN(CCOC)CC3)ncc1Cl` [Example 1227, 2-{5-Chloro-2-[3-(2-methoxy-ethyl)-2,3,4,5-tetrahydro-1H-3-benzazepin-7-ylamino]-pyrimidin-4-ylamino}-3-hydroxy-N-methyl-benzamide], the IC50 in assay [1] and in assay [2] was 100 to 1000 nM throughout.
On to `CCNC(=O)c1cccc(F)c1Nc1nc(Nc2ccc3c(c2)CNC(=O)CCN3C(C)=O)ncc1Cl` [Example 1228, 2-[2-(1-Acetyl-4-oxo-1,2,3,4,5,6-hexahydro-benzo[b][1,5]diazocin-8-ylamino)-5-chloro-pyrimidin-4-ylamino]-N-ethyl-3-fluoro-benzamide], for which the IC50 in assay [1] was 100 to 1000 nM; in assay [2], less than 100 nM.
`CCN1C(=O)CCCc2ccc(Nc3ncc(Cl)c(Nc4cccc(CC#N)c4)n3)cc21` [Example 1229, {3-[5-Chloro-2-(1-ethyl-2-oxo-2,3,4,5-tetrahydro-1H-1-benzazepin-8-ylamino)-pyrimidin-4-ylamino]-phenyl}-acetonitrile]: the 50% inhibitory concentration (IC50) in assay [1] and in assay [2] was 100 to 1000 nM each time.
Take `CCN1C(=O)CCCc2ccc(Nc3ncc(Cl)c(Nc4ccccc4OCC#N)n3)cc21` [Example 1230, {2-[5-Chloro-2-(1-ethyl-2-oxo-2,3,4,5-tetrahydro-1H-1-benzazepin-8-ylamino)-pyrimidin-4-ylamino]-phenoxy}-acetonitrile]: the 50% inhibitory concentration (IC50) in assay [1] and in assay [2] was less than 100 nM throughout.
Consider `CC(=O)N1CCC(=O)NCc2cc(Nc3ncc(Cl)c(Nc4ccccc4OCC#N)n3)ccc21` [Example 1231, {2-[2-(1-Acetyl-4-oxo-1,2,3,4,5,6-hexahydro-benzo[b][1,5]diazocin-8-ylamino)-5-chloro-pyrimidin-4-ylamino]-phenoxy}-acetonitrile], for which the IC50 in assay [1] and in assay [2] was less than 100 nM throughout.
Consider `CCN1C(=O)CCCc2ccc(Nc3ncc(Cl)c(Nc4ccccc4CCC#N)n3)cc21` [Example 1232, 3-{2-[5-Chloro-2-(1-ethyl-2-oxo-2,3,4,5-tetrahydro-1H-1-benzazepin-8-ylamino)-pyrimidin-4-ylamino]-phenyl}-propionitrile], for which the 50% inhibitory concentration (IC50) in assay [1] was 100 to 1000 nM; in assay [2], 1000 to 10000 nM.
`CC(=O)N1CCC(=O)NCc2cc(Nc3ncc(Cl)c(Nc4ccccc4CCC#N)n3)ccc21` [Example 1233, 3-{2-[2-(1-Acetyl-4-oxo-1,2,3,4,5,6-hexahydro-benzo[b][1,5]diazocin-8-ylamino)-5-chloro-pyrimidin-4-ylamino]-phenyl}-propionitrile]: the IC50 in assay [1] and in assay [2] was 100 to 1000 nM throughout.
In the case of `COc1cc(N2CCOCC2)ccc1Nc1nc(Nc2ccc3c(c2)NC(=O)CCC3(C)C)ncc1Cl` [Example 1234, 8-[5-Chloro-4-(2-methoxy-4-morpholin-4-yl-phenylamino)-pyrimidin-2-ylamino]-5,5-dimethyl-1,3,4,5-tetrahydro-1-benzazepin-2-one], the results for the IC50 in assay [1] and in assay [2] were less than 100 nM and 100 to 1000 nM, respectively.
For `CNC(=O)c1ccc([N+](=O)[O-])cc1Nc1nc(Nc2ccc3c(c2)C(C)(C)CCC(=O)N3)ncc1Cl` [Example 1235, 2-[5-Chloro-2-(5,5-dimethyl-2-oxo-2,3,4,5-tetrahydro-1H-1-benzazepin-7-ylamino)-pyrimidin-4-ylamino]-N-methyl-4-nitro-benzamide] the same measures were less than 100 nM and 100 to 1000 nM.
For `CC1(C)CCC(=O)Nc2cc(Nc3ncc(Cl)c(N[C@H]4[C@@H](C(N)=O)[C@@H]5C=C[C@H]4C5)n3)ccc21` [Example 1236, (1S,2S,3R,4R)-3-[5-Chloro-2-(5,5-dimethyl-2-oxo-2,3,4,5-tetrahydro-1H-1-benzazepin-8-ylamino)-pyrimidin-4-ylamino]-bicyclo[2.2.1]hept-5-ene-2-carboxylic acid amide] the same measures were less than 100 nM and less than 100 nM.
`CC1(C)CCC(=O)Nc2cc(Nc3ncc(Cl)c(Nc4ccccc4OCCC#N)n3)ccc21` [Example 1238, 3-{2-[5-Chloro-2-(5,5-dimethyl-2-oxo-2,3,4,5-tetrahydro-1H-1-benzazepin-8-ylamino)-pyrimidin-4-ylamino]-phenoxy}-propionitrile]: the IC50 in assay [1] and in assay [2] was less than 100 nM in each case.
Consider `CNC(=O)c1ccc(N)cc1Nc1nc(Nc2ccc3c(c2)C(C)(C)CCC(=O)N3)ncc1Cl` [Example 1239, 4-Amino-2-[5-chloro-2-(5,5-dimethyl-2-oxo-2,3,4,5-tetrahydro-1H-1-benzazepin-7-ylamino)-pyrimidin-4-ylamino]-N-methyl-benzamide], for which the 50% inhibitory concentration (IC50) in assay [1] is less than 100 nM; in assay [2] it was 1000 to 10000 nM.
For the compound `COCCN1CCc2ccc(Nc3ncc(Cl)c(Nc4ccccc4OCC#N)n3)cc2CC1` [Example 1240, (2-{5-Chloro-2-[3-(2-methoxy-ethyl)-2,3,4,5-tetrahydro-1H-3-benzazepin-7-ylamino]-pyrimidin-4-ylamino}-phenoxy)-acetonitrile], the IC50 in assay [1] and in assay [2] was less than 100 nM each time.
On to `COCCN1CCc2ccc(Nc3ncc(Cl)c(Nc4ccccc4OCC(N)=O)n3)cc2CC1` [Example 1241, 2-(2-{5-Chloro-2-[3-(2-methoxy-ethyl)-2,3,4,5-tetrahydro-1H-3-benzazepin-7-ylamino]-pyrimidin-4-ylamino}-phenoxy)-acetamide], for which the half-maximal inhibitory concentration (IC50) in assay [1] and in assay [2] was 100 to 1000 nM throughout.
`COCCN1CCc2ccc(Nc3ncc(Cl)c(Nc4ccccc4OCC(=O)O)n3)cc2CC1` [Example 1242, (2-{5-Chloro-2-[3-(2-methoxy-ethyl)-2,3,4,5-tetrahydro-1H-3-benzazepin-7-ylamino]-pyrimidin-4-ylamino}-phenoxy)-acetic acid]: the half-inhibitory concentration (IC50) in assay [1] is less than 100 nM; in assay [2] it was 100 to 1000 nM.
For the compound `CCN1C(=O)CCC(C)(C)c2ccc(Nc3ncc(Cl)c(Nc4ccccc4S(=O)(=O)C(C)C)n3)cc21` [Example 1243, 8-{5-Chloro-4-[2-(propane-2-sulfonyl)-phenylamino]-pyrimidin-2-ylamino}-1-ethyl-5,5-dimethyl-1,3,4,5-tetrahydro-1-benzazepin-2-one], the IC50 in assay [1] and in assay [2] was less than 100 nM throughout.
Consider `CNC(=O)c1ccc(NC(C)=O)cc1Nc1nc(Nc2ccc3c(c2)C(C)(C)CCC(=O)N3)ncc1Cl` [Example 1244, 4-Acetylamino-2-[5-chloro-2-(5,5-dimethyl-2-oxo-2,3,4,5-tetrahydro-1H-1-benzazepin-7-ylamino)-pyrimidin-4-ylamino]-N-methyl-benzamide], for which the IC50 in assay [1] and in assay [2] was 1000 to 10000 nM throughout.
Take `COCCN1CCc2ccc(Nc3ncc(Cl)c(Nc4c(C)cccc4OCC#N)n3)cc2CC1` [Example 1245, (2-{5-Chloro-2-[3-(2-methoxy-ethyl)-2,3,4,5-tetrahydro-1H-3-benzazepin-7-ylamino]-pyrimidin-4-ylamino}-3-methyl-phenoxy)-acetonitrile]: the 50% inhibitory concentration (IC50) in assay [1] and in assay [2] was 100 to 1000 nM throughout.
Regarding `CC(=O)N1CCC(=O)NCc2cc(Nc3ncc(Cl)c(Nc4c(C)cccc4OCC#N)n3)ccc21` [Example 1246, {2-[2-(1-Acetyl-4-oxo-1,2,3,4,5,6-hexahydro-benzo[b][1,5]diazocin-8-ylamino)-5-chloro-pyrimidin-4-ylamino]-3-methyl-phenoxy}-acetonitrile], the 50% inhibitory concentration (IC50) was 100 to 1000 nM in assay [1] and less than 100 nM in assay [2].
